According to patent US20260262643A1, “HERBICIDAL BENZOXAZINES” (FMC CORPORATION, priority 2022, published 2026):

Legend:
barnyardgrass [1] = assay: Test D flooded paddy test; format: in vivo, Echinochloa crus-galli; conditions: 250 g ai/ha, applied to paddy water, visual rating after 13 to 14 days, scale 0 to 100 (0 no effect, 100 complete control)
How it was run: (§1)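 At the 2-leaf stage, floodwater 3 cm deep received the test compound; that depth persisted throughout. Plants scored visually 13 to 14 days on, 0 (no effect) to 100 (complete control), dash indicating no result.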

oat, wild [2] = assay: Test C postemergence; format: in vivo, Avena fatua; conditions: 10 days
How it was run: (§2)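 Visual injury ratings on a 0–100 scale (100 = complete control) were made against untreated controls 10 days after treatment in the greenhouse. Compounds, formulated with surfactant in non-phytotoxic solvent, were sprayed on soil preemergence or onto one- to two-leaf plants 2–10 cm tall postemergence.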

ryegrass, Italian [3] = assay: Test C preemergence; format: in vivo, Lolium multiflorum; conditions: 0 to 100 scale (0 no effect, 100 complete control)
How it was run: as §2

sedge, umbrella = assay: Test D flooded paddy test; format: in vivo, Cyperus difformis; conditions: 250 g ai/ha, applied to paddy water, visual rating after 13 to 14 days, scale 0 to 100 (0 no effect, 100 complete control)
How it was run: as §1

barnyardgrass [4] = assay: Test C postemergence; format: in vivo, Echinochloa crusgalli; conditions: 10 days
How it was run: as §2

corn [5] = assay: Test C preemergence; format: in vivo, Zea mays; conditions: 0 to 100 scale (0 no effect, 100 complete control)
How it was run: as §2

soybean [6] = assay: Test C postemergence; format: in vivo, Glycine max; conditions: 10 days
How it was run: as §2

ragweed [7] = assay: Test C postemergence; format: in vivo, Ambrosia artemisiifolia; conditions: 10 days
How it was run: as §2

green foxtail [8] = assay: Test C preemergence; format: in vivo, Setaria viridis; conditions: 0 to 100 scale (0 no effect, 100 complete control)
How it was run: as §2

corn [9] = assay: Test C postemergence; format: in vivo, Zea mays; conditions: 10 days
How it was run: as §2

kochia [10] = assay: Test C postemergence; format: in vivo, Bassia scoparia; conditions: 10 days
How it was run: as §2

pigweed, palmer [11] = assay: Test C postemergence; format: in vivo, Amaranthus palmeri; conditions: 10 days
How it was run: as §2

kochia [12] = assay: Test C preemergence; format: in vivo, Bassia scoparia; conditions: 0 to 100 scale (0 no effect, 100 complete control)
How it was run: as §2

ragweed [13] = assay: Test C preemergence; format: in vivo, Ambrosia artemisiifolia; conditions: 0 to 100 scale (0 no effect, 100 complete control)
How it was run: as §2

horseweed = assay: Test C postemergence; format: in vivo, Erigeron canadensis; conditions: 10 days
How it was run: as §2

ryegrass, Italian [14] = assay: Test C postemergence; format: in vivo, Lolium multiflorum; conditions: 10 days
How it was run: as §2

soybean [15] = assay: Test C preemergence; format: in vivo, Glycine max; conditions: 0 to 100 scale (0 no effect, 100 complete control)
How it was run: as §2

barnyardgrass [16] = assay: Test C preemergence; format: in vivo, Echinochloa crusgalli; conditions: 0 to 100 scale (0 no effect, 100 complete control)
How it was run: as §2

ducksalad = assay: Test D flooded paddy test; format: in vivo, Heteranthera limosa; conditions: 250 g ai/ha, applied to paddy water, visual rating after 13 to 14 days, scale 0 to 100 (0 no effect, 100 complete control)
How it was run: as §1

wheat [17] = assay: Test C preemergence; format: in vivo, Triticum aestivum; conditions: 0 to 100 scale (0 no effect, 100 complete control)
How it was run: as §2

galium = assay: Test C postemergence; format: in vivo, Galium aparine; conditions: 10 days
How it was run: as §2

blackgrass [18] = assay: Test C preemergence; format: in vivo, Alopecurus myosuroides; conditions: 0 to 100 scale (0 no effect, 100 complete control)
How it was run: as §2

green foxtail [19] = assay: Test C postemergence; format: in vivo, Setaria viridis; conditions: 10 days
How it was run: as §2

oat, wild [20] = assay: Test C preemergence; format: in vivo, Avena fatua; conditions: 0 to 100 scale (0 no effect, 100 complete control)
How it was run: as §2

rice = assay: Test D flooded paddy test; format: in vivo, Oryza sativa; conditions: 250 g ai/ha, applied to paddy water, visual rating after 13 to 14 days, scale 0 to 100 (0 no effect, 100 complete control)
How it was run: as §1

pigweed, palmer [21] = assay: Test C preemergence; format: in vivo, Amaranthus palmeri; conditions: 0 to 100 scale (0 no effect, 100 complete control)
How it was run: as §2

blackgrass [22] = assay: Test C postemergence; format: in vivo, Alopecurus myosuroides; conditions: 10 days
How it was run: as §2

wheat [23] = assay: Test C postemergence; format: in vivo, Triticum aestivum; conditions: 10 days
How it was run: as §2

[24] = 125 g ai/ha, postemergence, 0 to 100 scale, 0 no effect, 100 complete control
[25] = Postemergence, 500 g ai/ha, visual 0 to 100 scale (0 no effect, 100 complete control)
[26] = Preemergence, 500 g ai/ha, visual rating after 10 days
[27] = Test C, preemergence, 125 g ai/ha

COc1c(C)cc(-n2cnc(C(C)C)n2)cc1C(=O)N1C[C@H](C)Oc2c(Cl)cccc21 [Compound 260]
70: Barnyardgrass plant response rating (barnyardgrass [16]; [27])
80: Ryegrass, Italian plant response rating (ryegrass, Italian [3]; [27]) | Plant response rating, Kochia (kochia [12]; [26]) | Plant response rating, Blackgrass (blackgrass [18]; [26])
20: Plant response rating, Wheat (wheat [17]; [26]) | Wheat plant response rating (wheat [17]; [27]) | Plant response rating, Blackgrass (blackgrass [22]; [24]) | Plant response rating, Wheat (wheat [23]; [24]) | Plant response rating, Wheat (wheat [23]; [25])
0: Plant response rating, Barnyardgrass (Flood) (barnyardgrass [1]) | Plant response rating, Sedge, Umbrella (Flood) (sedge, umbrella) | Corn plant response rating (corn [5]; [27]) | Plant response rating, Ragweed (ragweed [7]; [24]) | Plant response rating, Ragweed (ragweed [7]; [25]) | Ragweed plant response rating (ragweed [13]; [27]) | Plant response rating, Horseweed (horseweed; [24]) | Plant response rating, Ducksalad (Flood) (ducksalad) | Plant response rating, Rice (Flood) (rice)
90: Plant response rating, Ryegrass, Italian (ryegrass, Italian [3]; [26]) | Plant response rating, Kochia (kochia [10]; [25]) | Plant response rating, Barnyardgrass (barnyardgrass [16]; [26]) | Plant response rating, Galium (galium; [24]) | Plant response rating, Oat, Wild (oat, wild [20]; [26])
10: Plant response rating, Barnyardgrass (barnyardgrass [4]; [24]) | Plant response rating, Corn (corn [5]; [26]) | Plant response rating, Corn (corn [9]; [24]) | Plant response rating, Pigweed, Palmer (pigweed, palmer [11]; [24]) | Plant response rating, Horseweed (horseweed; [25]) | Soybean plant response rating (soybean [15]; [27]) | Plant response rating, Foxtail, Green (green foxtail [19]; [24])
50: Plant response rating, Oat, Wild (oat, wild [2]; [25]) | Plant response rating, Barnyardgrass (barnyardgrass [4]; [25]) | Plant response rating, Pigweed, Palmer (pigweed, palmer [11]; [25])
40: Plant response rating, Ragweed (ragweed [13]; [26]) | Plant response rating, Soybean (soybean [15]; [26]) | Pigweed, Palmer plant response rating (pigweed, palmer [21]; [27])
60: Plant response rating, Corn (corn [9]; [25]) | Plant response rating, Kochia (kochia [10]; [24]) | Kochia plant response rating (kochia [12]; [27]) | Plant response rating, Ryegrass, Italian (ryegrass, Italian [14]; [24]) | Plant response rating, Ryegrass, Italian (ryegrass, Italian [14]; [25]) | Blackgrass plant response rating (blackgrass [18]; [27]) | Plant response rating, Foxtail, Green (green foxtail [19]; [25])
30: Plant response rating, Oat, Wild (oat, wild [2]; [24]) | Oat, Wild plant response rating (oat, wild [20]; [27]) | Plant response rating, Blackgrass (blackgrass [22]; [25])
100: Plant response rating, Soybean (soybean [6]; [24]) | Plant response rating, Soybean (soybean [6]; [25]) | Plant response rating, Foxtail, Green (green foxtail [8]; [26]) | Foxtail, Green plant response rating (green foxtail [8]; [27]) | Plant response rating, Galium (galium; [25]) | Plant response rating, Pigweed, Palmer (pigweed, palmer [21]; [26])
